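96-well plates; 48 h exposure; 5 concentrations. Endpoints by linear interpolation between flanking doses. Not reached: highest tested concentration assigned. TGI denotes the concentration required for complete inhibition of growth.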
Key:
Assay in all cases: growth of human tumour cells (NCI), 48 h
UO-31 renal = tested on: UO-31 renal
MDA-N = tested on: MDA-N
NCI/ADR-RES ovarian = tested on: NCI/ADR-RES ovarian
786-0 renal = tested on: 786-0 renal
SF-268 CNS = tested on: SF-268 CNS
ACHN renal = tested on: ACHN renal
MALME-3M melanoma = tested on: MALME-3M melanoma
TK-10 renal = tested on: TK-10 renal
MDA-MB-435 = tested on: MDA-MB-435
IGROV1 ovarian = tested on: IGROV1 ovarian
SNB-75 CNS = tested on: SNB-75 CNS
UACC-62 melanoma = tested on: UACC-62 melanoma

Compound	TGI (UO-31 renal)	TGI (MDA-N)	TGI (NCI/ADR-RES ovarian)	TGI (786-0 renal)	TGI (SF-268 CNS)	TGI (ACHN renal)	TGI (MALME-3M melanoma)	TGI (TK-10 renal)	TGI (MDA-MB-435)	TGI (IGROV1 ovarian)	TGI (SNB-75 CNS)	TGI (UACC-62 melanoma)
O=C(O)CNC(=O)c1ccc([As](=O)(O)O)cc1	> 100 µM	> 100 µM	> 100 µM	> 100 µM	> 100 µM	> 100 µM	> 100 µM	> 100 µM	> 100 µM	> 100 µM	> 100 µM	> 100 µM
O=C1C(Br)=Cc2c(Cl)sc(Cl)c21	9.14 µM	8.7 µM	> 100 µM	5.09 µM	> 28 µM	9.83 µM	29 µM	5.23 µM	5.43 µM	7.67 µM	30.4 µM	27.2 µM
O=C1C(C=NCCc2c[nH]c3ccccc23)C(C(F)(F)F)=NN1c1nc2ccccc2s1 (stereo not given)	> 100 µM	> 100 µM	78 µM	> 100 µM	> 100 µM	83.5 µM	> 100 µM	62.1 µM	71.9 µM	> 100 µM	> 100 µM	43.6 µM
CCN(CCCN(CC)C(=O)N[C@@H](Cc1ccccc1)C(=O)NC)C(=O)N[C@@H](Cc1ccccc1)C(=O)NC	> 100 µM	> 100 µM	> 100 µM	> 100 µM	> 100 µM	> 100 µM	> 100 µM	> 100 µM	> 100 µM			> 100 µM
CSc1c(C(=O)Nc2ccc(C)cc2)c(N)[nH]c(=O)c1C#N	> 100 µM	> 100 µM	> 100 µM	> 100 µM	> 100 µM		> 100 µM	> 100 µM	> 100 µM		> 100 µM	> 100 µM
NCCCC(N)C(=O)O (stereo not given)	> 100 µM	> 100 µM	> 100 µM	> 100 µM	> 100 µM	> 100 µM	> 100 µM	> 100 µM	> 100 µM	> 100 µM	> 100 µM	> 100 µM
CN(C)c1ccc(/C(Br)=C2\OC(=O)c3ccccc32)cc1	> 100 µM	> 100 µM	> 100 µM	> 100 µM	> 100 µM	> 100 µM	> 100 µM	> 100 µM	> 100 µM	> 100 µM	> 100 µM	> 100 µM
Cc1ccc(C2=Nc3c(c(C)nn3-c3ccccc3)N=C(C(=O)O)C2)cc1	> 10 µM	> 10 µM	> 10 µM	> 10 µM	> 10 µM	> 10 µM	> 10 µM	> 10 µM	> 10 µM	> 10 µM	> 10 µM	> 10 µM
O=C1NC(=S)NC(=O)C1C(c1ccccc1[N+](=O)[O-])C1C(=O)NC(=S)NC1=O	> 100 µM	> 100 µM	> 100 µM	> 100 µM	> 100 µM	> 100 µM	> 100 µM	> 100 µM	> 100 µM			> 100 µM
O=c1c2cc(I)ccc2[nH]c(=S)n1Cc1ccccc1	1.83 µM	> 100 µM	> 100 µM	63 µM	57.5 µM	> 100 µM		42 µM	> 100 µM	30.3 µM	54.4 µM	> 100 µM
CC(=O)/C(=C/n1c(=S)sc2ccccc21)C(=O)Nc1ccccc1C	> 100 µM	> 100 µM	> 100 µM	> 100 µM	> 100 µM	> 100 µM		> 100 µM	> 100 µM	> 100 µM	> 100 µM	> 100 µM
O=C1CC(c2ccc([N+](=O)[O-])cc2)C2(C(=O)NC(=S)NC2=O)C(c2ccc([N+](=O)[O-])cc2)C1 (stereo not given)	63.1 µM	> 100 µM	> 100 µM	87.7 µM	45.6 µM	40.4 µM	32.2 µM	46.7 µM	40.4 µM	45.2 µM	> 100 µM	32.6 µM
CC(C)(CO)N1C(=O)c2ccccc2C1(O)c1ccc(Cl)cc1 (stereo not given)	> 100 µM	> 100 µM	> 100 µM	> 100 µM	> 100 µM	> 100 µM	> 100 µM	> 100 µM	> 100 µM	> 100 µM	> 100 µM	> 100 µM
Cc1cccc(N(CCC#N)S(=O)(=O)c2ccccc2)c1	> 100 µM	> 100 µM	> 100 µM	> 100 µM	> 100 µM	> 100 µM	> 100 µM	> 100 µM	> 100 µM	> 100 µM	> 100 µM	> 100 µM
Cc1nc2ccc([N+](=O)[O-])cc2c(=O)n1C(=S)Nc1cccc(Cl)c1	21.5 µM	39.4 µM	89.7 µM	78 µM	42.9 µM	48.2 µM	49.1 µM	67.5 µM	41.2 µM		40.8 µM	29.1 µM
Brc1ccc2c3c1[C@@H]1O[C@@H]1c1cccc(c1-3)[C@@H]1O[C@H]21	43.8 µM	53.5 µM	45.4 µM	51.1 µM	63.1 µM	67.1 µM	41.6 µM	> 100 µM	48.3 µM		45.2 µM	35.4 µM
CN(O)C(=O)Cc1ccc(OCc2cccc(Cl)c2)cc1	> 100 µM	> 100 µM	> 100 µM	> 100 µM	> 100 µM	> 100 µM		> 100 µM	> 100 µM	> 100 µM	> 100 µM	> 100 µM
O=C1/C(=C/c2ccc([N+](=O)[O-])cc2)CNC/C1=C\c1ccc([N+](=O)[O-])cc1	19.6 µM	25.5 µM	26.3 µM	3.18 µM	4.47 µM	25.3 µM	> 100 µM	> 95.8 µM	23.9 µM	4.78 µM	17 µM	29.5 µM
CO/N=C1/c2sccc2[C@H](NC(=O)CNC(=O)OC(C)(C)C)[C@@H]1O	> 100 µM	> 100 µM	> 100 µM		> 100 µM		> 100 µM	> 100 µM	> 100 µM	> 100 µM	> 100 µM	> 100 µM

Compound	TGI (UO-31 renal)	TGI (MDA-N)	TGI (NCI/ADR-RES ovarian)	TGI (786-0 renal)	TGI (SF-268 CNS)	TGI (ACHN renal)	TGI (MALME-3M melanoma)	TGI (TK-10 renal)	TGI (MDA-MB-435)	TGI (IGROV1 ovarian)	TGI (SNB-75 CNS)	TGI (UACC-62 melanoma)
O=C(O)c1ccc(NS(=O)(=O)Cc2ccccc2)cc1	> 100 µM	> 100 µM	> 100 µM	> 100 µM	> 100 µM	> 100 µM	> 100 µM	> 100 µM	> 100 µM	> 100 µM	> 100 µM	> 100 µM
C/C(=N/NC(=S)Nc1cccc(C)c1)c1ccccn1	6 µM	3.61 µM	0.444 µM	4.26 µM	13.9 µM	6.83 µM	8 µM	4.98 µM	3.5 µM	4.68 µM	5.08 µM	2.92 µM
N#Cc1c(OCCF)c2ccccc2n2c1nc1ccccc12	> 100 µM	> 100 µM	> 100 µM		> 100 µM	> 100 µM		> 100 µM	> 100 µM	> 100 µM	> 100 µM	> 100 µM
C[C@]12CC/C(=N\O)C=C1CC[C@@H]1[C@@H]2CC[C@]2(C)C(=N/O)/C(=C/c3cccnc3)C[C@@H]12	79.9 µM	49.3 µM	> 100 µM	> 100 µM		73.4 µM	72.3 µM	59.3 µM	46.9 µM	> 100 µM		10.4 µM
c1ccc2c(c1)CCCN1CCc3ccccc3C21 (stereo not given)	> 100 µM	70.4 µM	> 100 µM	> 100 µM	> 100 µM	> 100 µM	> 100 µM	> 100 µM	56.4 µM	> 100 µM	> 100 µM	> 100 µM
O=C(CCc1ccc(O)cc1)c1c(O)cc(O)cc1OC1OC(CO)C(O)C(O)C1O (stereo not given)	> 100 µM	> 100 µM	> 100 µM	> 100 µM	> 100 µM	> 100 µM	> 100 µM	> 100 µM	> 100 µM	> 100 µM	> 100 µM	> 100 µM
Nc1ncnc2c1ncn2C(=O)NC12CC3CC(CC(C3)C1)C2	> 100 µM	> 100 µM	> 100 µM	> 100 µM	> 100 µM	> 100 µM	> 100 µM	> 100 µM	> 100 µM		> 100 µM	> 100 µM
CC(C)CCNC(=O)c1ccc(CNC(=O)/C=C/c2ccc(OCc3ccccc3)cc2)cc1	> 100 µM	> 100 µM	> 100 µM	> 100 µM	> 100 µM	> 100 µM			> 100 µM		> 100 µM	> 100 µM
CCn1c(=O)c2c3cc(O)ccc3oc2c2ccc(O)cc21	46.6 µM	> 100 µM	> 100 µM	> 100 µM	> 100 µM	66.1 µM	> 100 µM	> 100 µM	> 100 µM	> 100 µM	> 100 µM	> 100 µM
Cc1cc(O)cc(O)c1N=Nc1ccc([N+](=O)[O-])cc1	83.8 µM	83.9 µM	52.9 µM		> 100 µM	94.9 µM	87.7 µM	> 100 µM	42.4 µM	66.3 µM	45.6 µM	32.2 µM
CC1CC(C#N)=C2NCCCCN2C1=O (stereo not given)	> 100 µM	> 100 µM	> 100 µM	> 100 µM	> 100 µM		> 100 µM	> 100 µM	> 100 µM	> 100 µM	> 100 µM	> 100 µM
CC1=C2c3ccccc3N(C(=O)/C=C/C(=O)O)[C@H]2[C@H]2C(=O)OC(=O)[C@H]2C1	> 10 µM	> 10 µM	> 10 µM		> 10 µM	> 10 µM	> 10 µM	> 10 µM	> 10 µM	> 10 µM	> 10 µM	> 10 µM
CCOC(=O)c1c(SCCN2CCCC2)n(-c2ccccc2)c(=S)n(-c2ccccc2)c1=O		6.01 µM	> 92 µM	2.89 µM	10.1 µM	3.17 µM	3.36 µM	3.06 µM	5.95 µM	4.47 µM	19.5 µM	7.29 µM
Cc1nc2cc(C(F)(F)F)ccc2[nH]c1=O	> 100 µM	> 100 µM	> 100 µM	> 100 µM	> 100 µM	> 100 µM	> 100 µM	> 100 µM	> 100 µM		> 100 µM	> 100 µM
N#CC(C#N)=C1CCCS(=O)(=O)c2ccccc21	> 100 µM	> 100 µM	> 100 µM	> 100 µM	> 100 µM	> 100 µM		> 100 µM	> 100 µM	> 100 µM	> 100 µM	> 100 µM
CC1=CC(=O)N(n2c(C)n[nH]c2=O)C1=O	> 100 µM	> 100 µM	> 100 µM	> 100 µM	> 100 µM	> 100 µM	> 100 µM	> 100 µM	> 100 µM	> 100 µM		> 100 µM
O=C(O[C@H](/C=C/c1ccccc1)P1(=O)N(Cc2ccccc2)[C@@H]2CCCC[C@H]2N1Cc1ccccc1)c1ccccc1	> 100 µM	> 100 µM	43.1 µM	42 µM	> 100 µM	> 100 µM	12 µM	> 100 µM	96.3 µM	15.8 µM		40 µM
O=c1nc2c(c(-c3cccc(Cl)c3)[nH]1)COC/C2=C\c1cccc(Cl)c1	> 100 µM	> 100 µM	> 100 µM	> 100 µM	> 100 µM	> 100 µM		> 100 µM	> 100 µM	> 100 µM	> 100 µM	> 100 µM
CN1C(=O)CN(NC(=O)C2=C(O)c3ccc(Br)cc3S(=O)(=O)N2)C1=S	> 100 µM	> 100 µM	> 100 µM	> 100 µM	> 100 µM	> 100 µM	> 100 µM	> 100 µM	> 100 µM	> 100 µM		> 100 µM

Reference: PubChem BioAssay (NCI)
